Test results reported in patent US20140142180A1, “METHODS OF TREATING TUMORS HAVING ELEVATED MCT1 EXPRESSION” (Whitehead Institute for Biomedical Research, priority 2012, published 2014).
“Also recorded” adds a separate entry of the source.

Legend:
KBM7 cells = test: Cell survival assay, wild type (parental) KBM7 cells; format: cell-based, human; settings: 50 μM, 3 days of treatment
Description: A haploid cell genetic screen with 3-BrPA was performed using 100 million mutagenized KBM7 cells as described previously^29. Mutagenized haploid KBM-7 cells were exposed to 50 μM 3-BrPA for 3 weeks. Surviving clones were harvested and genomic DNA was isolated and insertions were amplified. The sequences flanking retroviral insertion sites were mapped to the human genome using inverse PCR followed by Ilium in a sequencing. Genomic regions with a high density of insertions were identified using the proximity index for a given insertion. Additionally, the statistical enrichment of insertions at a given locus in the selected population was calculated by comparing the number of inactivating insertions to those in the untreated control dataset via a Fisher's Exact Test. Individual clones were isolated among 50 different clones and genomic DNA for individually selected clones were isolated using a genomic DNA isolation kit (Qiagen). Genomic insertions were identified by inverse PCR and subsequent sequencing as described previously^24.
Cell lines (5,000-20,000) were seeded in 96-well plates and treated with indicated amounts of 3-BrPA. After 3 days of treatment, CellTiter-Glo (Promega) and/or CyQuant (Invitrogen) were used to measure survival percentage for each concentration compared to untreated cells. […]

BT-20 cells = test: Cell survival assay, BT-20; format: cell-based, human
Description: (§1) Cell lines (5,000-20,000) were seeded in 96-well plates and treated with indicated amounts of 3-BrPA. After 3 days of treatment, CellTiter-Glo (Promega) and/or CyQuant (Invitrogen) were used to measure survival percentage for each concentration compared to untreated cells. FACS analysis with Annexin V and 7AAD staining was performed according to manufacturer's manual (BD Pharmingen).

MDA-MB-468 cells = test: Cell survival assay, MDA-MB-468; format: cell-based, human
Description: as §1
(§2) 15 cell lines (BT-474, BT-549, CAK1-1, CAL-51, HCC-70, HS578T, JURKAT, MDA-MB-157, MDA-MB-231, MDA-MB-453, MDA-MB-468, PC-3, SK-BR-3, T47D, ZR-75-1) were treated with 3-BrPA (0-300 μM). After 3 days, cell viability was quantified via CellTiter-Glo assay and an IC50 from the resulting dose-response curve was interpolated using a nonlinear regression model. Transcriptome-wide normalized mRNA levels from gene expression profiling experiments performed on the Affymetrix Human Genome U133 Plus 2.0 chip were obtained from the CCLE for all 15 cell lines. The mRNA expression pattern across all 15 samples for each of the genes was then correlated with the IC50 values. Similar correlation analysis was performed using OCR/ECAR values for each cell line.

MT-3 cells = test: Cell survival assay, MT-3; format: cell-based, human; settings: MT-3, increased MCT1 level
Description: as §1

MDA-MB-453 cells = test: Cell survival assay, MDA-MB-453; format: cell-based, human; settings: MDA-MB-453, low MCT1 level
Description: as §1, §2

ER negative cells = test: 3-BrPA sensitivity of ER negative tumor cell lines; format: cell-based; settings: MCT1 expressed at high levels
parental KBM7 cells = test: Extracellular flux analysis (ECAR), parental KBM7 cells; format: cell-based, human; settings: 50 μM 3-BrPA
Description: (§3) The bioenergetic profiles of KBM7 and MDA-MB-231 cells in response to 3-BrPA were determined using a Seahorse Bioscience XF24 Extracellular Flux Analyzer (Seahorse Bioscience). For the indicated experiments, 250,000 KBM7 or 40,000 MDA-MB-231 cells seeded in Seahorse tissue culture plates using unbuffered RPMI (10 mM Glucose). KBM7 cells were attached to the plates using CellTak (Clontech) one hour prior to the start of the experiment. For AUC (area under the curve) OCR and ECAR measurements, three consecutive readings were performed for each cell line. For experiments where 3-BrPA is used, after 3 consecutive readings, 50 μM 3-BrPA was injected through port A and ECAR and OCAR levels were measured. Lactate production was measured as described previously^50. For ATP assays, 20,000 cells were seeded and treated for 30 min with indicated amounts of 3-BrPA and ATP levels were determined using a luciferase-based assay (Promega). For metabolite measurements, 10 million wild type and MCT1 null KBM7 cells were cultured for 1 hour in presence of 50 μM 3-BrPA before metabolite extraction. Then, cells were rapidly washed three times with cold PBS, and then metabolites were extracted by addition of 80% ice-cold methanol followed after incubation on dry ice for 15 min. Endogenous metabolite profiles were obtained using LC-MS as described^51. Metabolite levels (n=3) were normalized to cell number.

[1] = system: AMPK and ACC phosphorylation; test: Immunoblot of AMPK and ACC phosphorylation, MCT1-null KBM7 cells; format: cell-based, human; settings: 50 μM 3-BrPA
Description: Briefly, cells were rinsed twice in ice-cold PBS and harvested in a standard lysis buffer containing 50 mM Hepes, pH 7.4, 40 mM NaCl, 2 mM EDTA, 1.5 mM orthovanadate, 50 mM NaF, 10 mM pyrophosphate, 10 mM glycerophosphate, protease inhibitors (Roche) and 1% Triton-X-100. Proteins from total lysates were resolved by 8-12% SDS-PAGE, and analyzed by immunoblotting as described using anti-MCT1 (Millipore; Ab3540), anti-RPS6 and anti-raptor antibodies (1:1000)^50. For quantitation, ImageJ software was used and the signals were normalized using an equal loading control (RPS6/Raptor). Immunohistochemistry was performed on formalin-fixed paraffin embedded sections using a boiling Dako antigen retrieval method (Dako). A 1:500 dilution of the anti-MCT1 antibody was used for staining.

[2] = system: glyceraldehyde phosphate dehydrogenase (GAPDH); test: LC-MS metabolite profiling, wild type relative to MCT1-null KBM7 cells; format: cell-based, human
Description: as §3

[3] = system: MDA-MB-231 cells stably expressing MCT1; test: Subcutaneous MDA-MB-231 xenografts in nude mice; format: in vivo; settings: tumors with forced MCT1 expression vs untreated or GFP-expressing, 8 mg/kg, 3 weeks
Description: All animal studies and procedures were approved by the MIT Institutional Animal Care and Use Committee. 6-10 week old nude mice (Taconic) were used for generating all xenografts. In subcutaneous xenografts, mice were injected at two sites in the dorsal region, under isofluorane anesthesia with 100 μl/injection of tumor cell suspension in RPMI with 20% matrigel. 2.5 million MDA-MB-231 cells were injected. After 2 weeks, tumors were measured and mice were separated for PBS and 3-BrPA treatment (8 mg/kg). After 3 weeks, tumors were harvested, their dimensions were measured with a caliper and tumor volume estimated according to the formula: (0.5*W*L*L). Tumors were fixed in formalin for later processing.
To test if MCT1 expression can affect the sensitivity of established tumors to 3-BrPA, parental MDA-MB-231 cells, which express low levels of MCT1 (Supplemental FIG. 4), were injected subcutaneously into the left flanks of Nude mice, while MDA-MB-231 cells stably expressing MCT1 were injected into the contralateral flanks of the same animals. We allowed palpable subcutaneous tumors to form for 2 weeks before beginning 3-BrPA administration.

[4] = wild type relative to MCT1-null KBM7, 50 μM, 1 hour, LC-MS

O=C(O)C(=O)CBr [3-BrPA, 3-bromopyruvic acid]
sensitivity to 3-BrPA (cell death) (KBM7 cells): induce cell death accompanied by caspase-3 activation; also recorded: sensitive | sensitivity to 3-BrPA (BT-20 cells; BT-20, increased MCT1 level): sensitive | sensitivity to 3-BrPA with partial suppression of MCT1 by RNAi (BT-20 cells; BT-20 expressing shRNAs targeting MCT1): sufficient to confer resistance | sensitivity to 3-BrPA (MDA-MB-468 cells; MDA-MB-468, increased MCT1 level): sensitive | sensitivity to 3-BrPA with suppression of GAPDH expression by RNAi (MDA-MB-468 cells; MDA-MB-468 expressing shRNA targeted to GAPDH vs GFP control): markedly increased the sensitivity | sensitivity to 3-BrPA (MT-3 cells): sensitive | sensitivity to 3-BrPA (MDA-MB-453 cells): resistant | sensitivity to 3-BrPA (ER negative cells): highly sensitive | extracellular acidification rate (ECAR), a proxy for lactate production (parental KBM7 cells): substantial decrease | AMPK and ACC phosphorylation, markers of energy stress [1]: did not affect | intermediates of the pentose phosphate pathway ([2]; wild type KBM7, 50 μM, 1 hour, LC-MS): accumulated intermediates of the pentose phosphate pathway | glycolytic intermediates after glyceraldehyde 3-phosphate [2, 4]: depletion of those that come after | glycolytic intermediates preceding glyceraldehyde 3-phosphate [2, 4]: accumulation of the glycolytic intermediates that precede glyceraldehyde 3-phosphate | cause of anti-glycolytic effects from metabolite profiling ([2]; wild type vs MCT1-null KBM7 metabolite profiling): strongly implicates GAPDH inhibition | tumor size after 3-BrPA treatment [3]: significantly smaller
